# Where “and” joins values, the source holds several entries; their conditions need not be identical. Equal entries are not always repeated.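 All cell lines were grown in 96-well plates and treated with compound for 48 hours. The concentration for 50% growth inhibition is given as GI50. TGI denotes the concentration required for complete inhibition of growth.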
# How the values were obtained:
# Experiment in all cases: DTP human tumour cell line panel, 48 h
# SF-268 CNS = test system: SF-268 CNS
# NCI-H226 lung = test system: NCI-H226 lung
# ACHN renal = test system: ACHN renal
# PC-3 prostate = test system: PC-3 prostate
# IGROV1 ovarian = test system: IGROV1 ovarian
# UACC-62 melanoma = test system: UACC-62 melanoma
# SR leukemia = test system: SR leukemia
# SK-MEL-2 melanoma = test system: SK-MEL-2 melanoma
# SNB-75 CNS = test system: SNB-75 CNS
# KM12 colon = test system: KM12 colon
# U251 CNS = test system: U251 CNS
SMILES,TGI (SF-268 CNS) [µM],TGI (NCI-H226 lung) [µM],TGI (ACHN renal) [µM],TGI (PC-3 prostate) [µM],TGI (IGROV1 ovarian) [µM],TGI (UACC-62 melanoma) [µM],TGI (SR leukemia) [µM],TGI (SK-MEL-2 melanoma) [µM],TGI (SNB-75 CNS),TGI (KM12 colon) [µM],TGI (U251 CNS) [µM],GI50 (SF-268 CNS) [µM],GI50 (U251 CNS),GI50 (PC-3 prostate) [µM],GI50 (IGROV1 ovarian) [µM],GI50 (UACC-62 melanoma) [µM],GI50 (SR leukemia) [µM],GI50 (SK-MEL-2 melanoma) [µM],GI50 (SNB-75 CNS) [nM],GI50 (KM12 colon) [µM]
N#Cc1c(-c2ccccc2)c(C#N)c(=S)n(C2OCC(O)C(O)C2O)c1N (stereo not given),> 100,> 100,> 100,> 100,> 100,> 100,> 100,> 100,> 100 µM,> 100,–,–,–,–,–,–,–,–,–,–
Cc1n(CC(C)C)c2c([n+]1CC(=O)c1ccc([N+](=O)[O-])cc1)C(=O)c1ccccc1C2=O,< 0.0391,0.0523,–,–,0.0102,0.104,–,0.0837,0.641 µM,0.386,0.034,–,–,–,–,–,–,–,–,–
Nc1nc(NCC2(CO)CC(CCc3ccccc3)C2)cc(=O)[nH]1 (stereo not given),> 100,> 100,–,> 100,> 100,> 100,> 100,> 100,> 100 µM,> 100,> 100,–,–,–,–,–,–,–,–,–
CC1=C2c3ccccc3N(S(=O)(=O)c3ccccc3)[C@H]2[C@H](C(=O)N2C3CC4CC[C@@]3(CS2(=O)=O)C4(C)C)CC1 (stereo not given in full),> 100,> 100,> 100,> 100,> 100,> 100,> 100,–,19.6 µM,> 100,> 100,–,–,–,–,–,–,–,–,–
Oc1c2c(c3c4c1N=CC=4CCN=3)C1(C=C(Br)C(O)C(Br)=C1)CCN2 (stereo not given),5.75,9,–,–,2.86,2.66,–,11.8,24.5 µM,6.16,5.44,–,–,–,–,–,–,–,–,–
CCCCC1=CC1(C#N)[N+](=O)[O-] (stereo not given),> 100,> 100,> 100,> 100,> 100,> 100,> 100,–,> 100 µM,> 100,> 100,–,–,–,–,–,–,–,–,–
COC(=O)C1CCC[C@H]2C(CO)=C(C)C(=O)[C@@H]12 (stereo not given in full),> 100,> 100,> 100,–,> 100,> 100,> 100,> 100,> 100 µM,> 100,> 100,–,–,–,–,–,–,–,–,–
O=C1C(Cl)C(c2cccc(Br)c2)N1c1c(O)c(Cl)cc(Br)c1Cl (stereo not given),44.3,51.8,37.6,75.1,10.7,33.8,56.3,25,–,39.4,25.3,–,–,–,–,–,–,–,–,–
Cc1cccc(Nc2nc(NNC(=O)Cc3ccccc3)nc(NNC(=O)c3ccncc3)n2)c1,> 10,> 10,> 10,> 10,> 10,> 10,> 10,–,> 10 µM,> 10,–,–,–,–,–,–,–,–,–,–
C[N+]1(CCCC[N+]2(C)CCCCCCC2)CCCCCCC1,> 100,> 100,> 100,> 100,> 100,> 100,> 100,> 100,–,> 100,> 100,–,–,–,–,–,–,–,–,–
COc1cc(/C=C2/C(=O)N=C(NC(C)=O)N2C)ccc1OC(C)=O,–,> 100,> 100,> 100,> 100,> 100,–,> 100,> 100 µM,> 100,> 100,–,–,–,–,–,–,–,–,–
c1ccc(C2=NN[C@H](c3cn(-c4ccccc4)nc3-c3ccccc3)C2)cc1,> 100,–,–,> 100,> 100,> 100,> 100,> 100,4.19 µM,> 100,15.6,5.98,2.91 µM,6.22,5.57,6.61,> 100,30.2,2050,> 100
O=C(/C=C/c1ccc(O)cc1)c1cc(O)cc(O)c1,54.3,50.3,20.2,23.2,26.6,24.1,–,34.9,39.9 µM,–,27.5,–,–,–,–,–,–,–,–,–
CCCCCCCSCC1OC(n2cnc3c(N)ncnc32)C(O)C1O (stereo not given),> 100,> 100,> 100,–,41.8,–,43.4,44.8,> 100 µM,–,> 100,–,–,–,–,–,–,–,–,–
Clc1ccc2c(Cl)nc(-c3ccccc3)nc2c1,> 100,55.9,> 100,–,> 100,> 100,> 100,95,> 100 µM,> 100,35.1,–,–,–,–,–,–,–,–,–
COC(=O)C(CCSc1ccccc1)C(=O)OC,–,> 100,> 100,> 100,> 100,> 100,> 100,> 100,> 100 µM,> 100,> 100,–,–,–,–,–,–,–,–,–
COc1cc(O)c2c(c1O)C(=O)c1cc(C)ncc1C2=O,> 50,> 50,> 50,–,> 50,> 50,–,> 50,> 50 µM,> 50,30.7,–,–,–,–,–,–,–,–,–
C=CCOCn1ccc(NC(=O)c2ccccc2)nc1=O,> 100,> 100,> 100,> 100,> 100,> 100,> 100,–,> 100 µM,> 100,–,–,–,–,–,–,–,–,–,–
COC(=O)C1=C(OC(=O)/C(=C/c2c(F)cccc2F)c2ccccc2)C(C(=O)OC)[C@@]2(O)[C@@H](C(=O)OC)[C@H](C)C[C@@H]1[C@@H]2C(=O)OC (stereo not given in full),> 100,> 100,> 100,> 100,> 100,> 100,–,> 100,> 100 µM,> 100,> 100,–,–,–,–,–,–,–,–,–
CN(C)c1ccc(/C=C2\N=C(c3ccccc3)N(/N=C3\C(=O)Nc4ccccc43)C2=O)cc1,> 100,–,> 100,> 100,> 100,> 100,> 100,> 100,> 100 µM,> 100,> 100,–,–,–,–,–,–,–,–,–
CCCCCCCCCCCCCCCCNc1ccc2c(c1)OCCOCCOCCOCCO2,11.9,7.07,–,6.43,9.41,11.1,8.14,4.44,11.9 µM,4.84,10.4,–,–,–,–,–,–,–,–,–
CC1C(=O)CC[C@@]2(C)C(=O)CCCC12O (stereo not given in full),> 100,> 100,> 100,> 100,> 100,> 100,> 100,> 100,–,> 100,> 100,–,–,–,–,–,–,–,–,–

SMILES,TGI (SF-268 CNS) [µM],TGI (NCI-H226 lung) [µM],TGI (ACHN renal) [µM],TGI (PC-3 prostate) [µM],TGI (IGROV1 ovarian) [µM],TGI (UACC-62 melanoma) [µM],TGI (SR leukemia) [µM],TGI (SK-MEL-2 melanoma) [µM],TGI (SNB-75 CNS),TGI (KM12 colon) [µM],TGI (U251 CNS) [µM],GI50 (SF-268 CNS) [µM],GI50 (U251 CNS),GI50 (PC-3 prostate) [µM],GI50 (IGROV1 ovarian) [µM],GI50 (UACC-62 melanoma) [µM],GI50 (SR leukemia) [µM],GI50 (SK-MEL-2 melanoma) [µM],GI50 (SNB-75 CNS) [nM],GI50 (KM12 colon) [µM]
CN1CC(S(=O)(=O)c2ccccc2)CC(S(=O)(=O)c2ccccc2)C1c1ccccc1 (stereo not given),37.7,65.5,26.9,27.1,> 100,29,78.3,20,–,38.7,25.8,–,–,–,–,–,–,–,–,–
O=C(Nc1ccc(N2C(=O)CSC2c2cccs2)cc1)c1ccc(N2C(=O)CSC2c2cccs2)cc1 (stereo not given),> 100,–,> 100,> 100,> 100,> 100,–,> 100,> 100 µM,> 100,> 100,–,–,–,–,–,–,–,–,–
Nc1ccc(-c2nc3ccc(Cc4ccc5nc(-c6ccc(N)cc6)oc5c4)cc3o2)cc1,> 100,> 100,> 100,> 100,–,> 100,41.2,> 100,–,> 100,> 100,–,–,–,–,–,–,–,–,–
O=C(O)c1nc2cc(C(F)(F)F)ccc2[nH]c1=O,> 100,> 100,> 100,> 100,> 100,> 100,> 100,> 100,–,> 100,> 100,–,–,–,–,–,–,–,–,–
CN(C)C(=O)C(F)(F)C(c1ccc(C(F)(F)F)cc1)C1C(=O)N(C)C(=O)N(C)C1=O (stereo not given),> 100,> 100,> 100,> 100,–,> 100,–,> 100,> 100 µM,> 100,> 100,–,–,–,–,–,–,–,–,–
Nc1ccn(CC(CO)CC(c2ccccc2)P(=O)(O)O)c(=O)n1 (stereo not given),> 100,> 100,> 100,–,> 100,> 100,> 100,> 100,28.4 µM and > 100 µM,> 100,> 100,–,28.2 µM and > 100 µM,–,–,–,–,–,–,–
C=CCN1C[C@@H](C)N([C@@H](c2ccccc2)c2ccc(C(=O)N(CC)CC)cc2)C[C@@H]1C,> 100,> 100,> 100,> 100,> 100,> 100,> 100,> 100,–,> 100,> 100,–,–,–,–,–,–,–,–,–
ClCCCC1COc2ccccc2O1 (stereo not given),> 100,> 100,> 100,> 100,> 100,> 100,> 100,–,> 100 µM,–,> 100,–,–,–,–,–,–,–,–,–
CCN(CC)CCOCC1CCCN2CCCCC12 (stereo not given),> 100,> 100,> 100,> 100,–,> 100,–,> 100,> 100 µM,> 100,> 100,–,–,–,–,–,–,–,–,–
O=C1CCCCCCCCCCC1CN(Cc1ccccc1)Cc1ccccc1 (stereo not given),> 100,> 100,> 100,> 100,> 100,36.1,> 100,–,–,> 100,49.6,–,–,–,–,–,–,–,–,–
COc1ccc(N2C(=O)C3c4[nH]c5cc(Cl)ccc5c4C4CCC(C(C)(C)C)CC4C3C2=O)cc1 (stereo not given),> 100,> 100,> 100,> 100,> 100,> 100,43.6,–,> 100 µM,> 100,> 100,–,–,–,–,–,–,–,–,–
CCCCCCCCCCCCCCC[C@@H](O)C[N+](C)(C)CCO,6.66,14,24.1,–,2.11,36.4,> 23.6,44.3,7.54 µM,1.4,2.59,–,–,–,–,–,–,–,–,–
CC1=C(c2ccc(C)cc2)NC(=S)C(C)C(c2ccc(C)cc2)=N1 (stereo not given),> 100,> 100,> 100,–,> 100,> 100,–,–,> 100 µM,> 100,> 100,–,–,–,–,–,–,–,–,–
N#Cc1nc(C2SCCCS2)oc1N,> 100,–,> 100,> 100,> 100,> 100,> 100,> 100,0.843 µM,> 100,> 100,–,–,–,–,–,–,–,–,–
Cc1cccc2c(N)c3cccc(C(=O)NCCN4CCOCC4)c3nc12,1.19,–,13.1,7.19,3.4,3.18,–,2.61,1.32 µM,5,20.5,–,–,–,–,–,–,–,–,–
CCCC(=O)[O-].CCCC(=O)[O-].N.N.N.N.[Co+3].[O-][Cl+3]([O-])([O-])[O-],> 100,–,> 100,–,> 100,> 100,–,> 100,> 100 µM,> 100,> 100,–,–,–,–,–,–,–,–,–
O=C(Nn1c(-c2ccccc2)nc2ccccc2c1=O)c1ccc(O)cc1,> 100,> 100,> 100,> 100,> 100,> 100,> 100,–,> 100 µM,> 100,> 100,–,–,–,–,–,–,–,–,–
COc1cc(S(=O)(=O)Nc2ccc(-c3csc(/N=C\C=C\c4ccccc4)n3)cc2)ccc1Cl,> 100,57.7,> 100,56.7,> 100,> 100,> 100,72.3,> 100 µM,> 100,–,–,–,–,–,–,–,–,–,–
Cc1ccc(-c2n[nH]c(=O)n2N2C(=O)C=CC2=O)cc1,> 100,> 100,–,> 100,> 100,> 100,> 100,> 100,–,–,> 100,–,–,–,–,–,–,–,–,–
O=c1c2ccccc2n2n1Cc1ccccc1C2,> 100,> 100,> 100,> 100,> 100,> 100,> 100,–,> 100 µM,> 100,> 100,–,–,–,–,–,–,–,–,–
COC1CC(n2ccc(=O)[nH]c2=O)OC1CO (stereo not given),> 100,> 100,> 100,> 100,> 100,> 100,> 100,> 100,–,> 100,> 100,–,–,–,–,–,–,–,–,–

# Reference: PubChem BioAssay (NCI)
